# Ends that are not written are not given here.
# Legend:
# Solubility of peptides = assay type: physicochemical
# Procedure: The solubility of potential apitopes from S—Ag are determined by visual observations and turbidity measurement by UV spectrophotometry at 280 nm. The solubility of the peptides can be modified by adding amino acids ‘GKK’ or ‘KKK’ (or similar) on both the C- and N-terminus of the sequence. Modifications that may be suitable are described in WO2014/072958 (which is hereby incorporated by reference).
# For some of these peptides, the parental peptides were insoluble, and solubility is a critical parameter for them to work as a tolerogenic peptide. Several end-terminal modifications can be used and as example used here they were improved by addition of 3 lysines before and after the original peptide sequence (labelled as ‘-KKK’ versions).
# [1] = system: LN cells and splenocytes upon SAg or peptide restimulation; assay: Ex vivo tolerization experiment, DR3tg mice; assay type: in vivo; conditions: IFN-γ; for reduction in response to HIP-115 and HIP-115NE3 peptides: highest concentrations of probing peptide
# Procedure: FIG. 7: Ex vivo tolerisation protocol. Mice are injected subcutaneously in the flank with 0.1 μg/ml, 1 μg/ml and 10 μg/ml peptide on days −15, −13 and −11, followed by 3 injections of 100 μg/ml on days −8, −6 and −4 (escalating dose regime). On day 0, mice are immunized subcutaneously at the base of the tail with SAg/CFA or peptide/CFA. Mice are sacrificed 10 days after immunization to measure proliferation of LN cells and splenocytes upon SAg or peptide restimulation. LN, lymph nodes.
# FIG. 8: Ex vivo tolerance induction by HIP-115NE3-KKK apitope. DR3 mice are injected subcutaneously in the flank with 0.1 μg/ml, 1 μg/ml and 10 μg/ml HIP-115NE3-KKK on days −15, −13 and −11, followed by 3 injections of 100 μg/ml on days −8, −6 and −4 (escalating dose regime). On day 0, mice are immunized subcutaneously at the base of the tail with HIP-115/CFA. Mice are sacrificed 10 days after immunization to measure proliferation of LN cells and splenocytes upon SAg or peptide restimulation. Data represent mean±SEM of the concentration or OD values for the PBS-treated mice (black lines) and peptide-treated mice (color lines). Two-way ANOVA was used to measure overall treatment effects on T cell activation and p-values are written in the graphs. Bonferonni post-hoc testing was used and significant differences are indicated in the graphs (* p<0.05; **** p<0.0001). LN, lymph nodes. (A) Tolerisation against SAg in LN. IFN-γ production expressed as IFN-γ concentration (pg/ml). (B) Tolerisation against SAg in spleen. IFN-γ production expressed as IFN-γ concentration (pg/ml). (C) Tolerisation against HIP-115 and HIP-115NE3 peptides in LN. IFN-γ production expressed as OD values. (D) Tolerisation against HIP-115 and HIP-115NE3 peptides in spleen. IFN-γ production expressed as OD values.
# FIG. 9: Ex vivo tolerance induction by HIP-11B apitope. DR3 mice are injected subcutaneously in the flank with 0.1 μg/ml, 1 μg/ml and 10 μg/ml HIP-11B on days −15, −13 and −11, followed by 3 injections of 100 μg/ml on days −8, −6 and −4 (escalating dose regime). On day 0, mice are immunized subcutaneously at the base of the tail with HIP-11B/CFA. Mice are sacrificed 10 days after immunization to measure proliferation of LN cells and splenocytes upon SAg or peptide restimulation. Data represent mean±SEM of the concentration values for the PBS-treated mice (black lines) and peptide-treated mice (color lines). IFN-γ production expressed as IFN-γ concentration (pg/ml). Two-way ANOVA was used to measure overall treatment effects on T cell activation and p-values are written in the graphs. Bonferonni post-hoc testing was used and significant differences are indicated in the graphs (* p<0.05; **** p<0.0001). LN, lymph nodes. (A) Tolerisation against SAg in LN. (B) Tolerisation against SAg in spleen. (C) Tolerisation against HIP-11B peptide in LN. (D) Tolerisation against HIP-11B peptide in spleen.
# FIG. 10: Ex vivo tolerance induction by HIP-24DG apitope. DR3 mice are injected subcutaneously in the flank with 0.1 μg/ml, 1 μg/ml and 10 μg/ml HIP-24DG on days −15, −13 and −11, followed by 3 injections of 100 μg/ml on days −8, −6 and −4 (escalating dose regime). On day 0, mice are immunized subcutaneously at the base of the tail with HIP-24DG+HIP-24HM/CFA. Mice are sacrificed 10 days after immunization to measure proliferation of LN cells and splenocytes upon SAg or peptide restimulation. Data represent mean±SEM of the OD values for the PBS-treated mice (black lines) and peptide-treated mice (color lines). IFN-γ production expressed as OD values. LN, lymph nodes. Two-way ANOVA was used to measure overall treatment effects on T cell activation and p-values are written in the graphs. Bonferonni post-hoc testing was used and significant differences are indicated in the graphs (* p<0.05; ** p<0.01; *** p<0.001: **** p<0.0001). LN, lymph nodes. (A) Tolerisation against SAg in LN. (B) Tolerisation against HIP-24DG in LN. (C) Tolerisation against HIP-24HM2 peptide in LN. […]
substance,measurement,setting,value
"KKKAFVEQVANVVLKKK-NH2 [HIP-9K1-KKK, KKKAFVEQVANVVLKKK]",solubility,Solubility of peptides,soluble
"LPLLANNRERRGIA-NH2 [HIP-24HM3, LPLLANNRERRGIA]",solubility,Solubility of peptides,soluble
"LTKTLTLLPLLANNRERR-NH2 [HIP-24DG, LTKTLTLLPLLANNRERR]",tolerization against the peptide itself / peptides of the same region,"[1]; LN, DR3 mice",some tolerization
same,tolerization against SAg,"[1]; LN, DR3 mice, escalating dose regime s.c.",tolerization induced
same,solubility,Solubility of peptides,soluble
KKKVIFKKISRDKSVTIYLGKKK-NH2 [HIP-115NE3-KKK],reduction in response to SAg,"[1]; LN and spleen, highest dose of SAg used for probing, escalating dose regime s.c.",70%
same,reduction in response to HIP-115 and HIP-115NE3 peptides,[1]; LN,55%
same,reduction in response to HIP-115 and HIP-115NE3 peptides,[1]; spleen,65%
same,solubility,Solubility of peptides,soluble
KKKLTFRRDLYFSRVQVYKKK-NH2 [HIP-17J-KKK],tolerization against SAg,"[1]; spleen, DR3 mice, escalating dose regime s.c.",tolerization induced
"VIFKKISRDKSVTIYLG-NH2 [HIP-115NE3, VIFKKISRDKSVTIYLG]",solubility,Solubility of peptides,insoluble

# From patent US11542316B2, “S-Arrestin peptides and therapeutic uses thereof” (APITOPE INTERNATIONAL NV, priority 2017, dated 2023)
